Data taken from PubChem BioAssay (NCI).
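In this assay, cells in 96-well plates receive the compound at five concentrations for 48 hours. Endpoints are linearly interpolated between the surrounding concentrations. GI50: concentration for 50% inhibition of growth. The concentration for full growth arrest is given as TGI.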

Columns and labels:
Test in all cases: NCI tumour cell line growth inhibition, 48 h
786-0 renal = test system: 786-0 renal
A498 renal = test system: A498 renal
A549 NSCLC = test system: A549 NSCLC
ACHN renal = test system: ACHN renal
CAKI-1 renal = test system: CAKI-1 renal
CCRF-CEM leukemia = test system: CCRF-CEM leukemia
COLO 205 colon = test system: COLO 205 colon
DLD-1 colon = test system: DLD-1 colon
DMS 114 small cell lung = test system: DMS 114 small cell lung
DMS 273 small cell lung = test system: DMS 273 small cell lung
EKVX NSCLC = test system: EKVX NSCLC
HCC-2998 colon = test system: HCC-2998 colon
HCT-15 colon = test system: HCT-15 colon
HL-60(TB) leukemia = test system: HL-60(TB) leukemia
HOP-18 NSCLC = test system: HOP-18 NSCLC
HOP-62 NSCLC = test system: HOP-62 NSCLC
HOP-92 NSCLC = test system: HOP-92 NSCLC
HT29 colon = test system: HT29 colon
IGROV1 ovarian = test system: IGROV1 ovarian
K-562 leukemia = test system: K-562 leukemia
KM12 colon = test system: KM12 colon
LOX IMVI melanoma = test system: LOX IMVI melanoma
LXFL 529 NSCLC = test system: LXFL 529 NSCLC
M14 melanoma = test system: M14 melanoma
M19-MEL melanoma = test system: M19-MEL melanoma
MALME-3M melanoma = test system: MALME-3M melanoma
MOLT-4 leukemia = test system: MOLT-4 leukemia
NCI-H226 lung = test system: NCI-H226 lung
NCI-H23 lung = test system: NCI-H23 lung
NCI-H522 lung = test system: NCI-H522 lung
OVCAR-3 ovarian = test system: OVCAR-3 ovarian
OVCAR-4 ovarian = test system: OVCAR-4 ovarian
OVCAR-5 ovarian = test system: OVCAR-5 ovarian
OVCAR-8 ovarian = test system: OVCAR-8 ovarian
RPMI-8226 leukemia = test system: RPMI-8226 leukemia
RXF 393 renal = test system: RXF 393 renal
RXF-631 renal = test system: RXF-631 renal
SF-268 CNS = test system: SF-268 CNS
SF-295 CNS = test system: SF-295 CNS
SF-539 CNS = test system: SF-539 CNS
SK-MEL-2 melanoma = test system: SK-MEL-2 melanoma
SK-MEL-28 melanoma = test system: SK-MEL-28 melanoma
SK-MEL-5 melanoma = test system: SK-MEL-5 melanoma
SK-OV-3 ovarian = test system: SK-OV-3 ovarian
SN12C renal = test system: SN12C renal
SNB-19 CNS = test system: SNB-19 CNS
SNB-75 CNS = test system: SNB-75 CNS
SNB-78 CNS = test system: SNB-78 CNS
SW-620 colon = test system: SW-620 colon
TK-10 renal = test system: TK-10 renal
U251 CNS = test system: U251 CNS
UACC-257 melanoma = test system: UACC-257 melanoma
UACC-62 melanoma = test system: UACC-62 melanoma
UO-31 renal = test system: UO-31 renal
XF 498 CNS = test system: XF 498 CNS
HCT-116 colon = test system: HCT-116 colon
KM20L2 colon = test system: KM20L2 colon
NCI-H460 lung = test system: NCI-H460 lung
SR leukemia = test system: SR leukemia

Structure (SMILES): c1ccc(N=c2snc3scc(-c4ccccc4)n23)cc1
- TGI (786-0 renal): > 100 µM
- TGI (A498 renal): > 100 µM
- TGI (A549 NSCLC): > 100 µM
- TGI (ACHN renal): > 100 µM
- TGI (CAKI-1 renal): > 100 µM
- TGI (CCRF-CEM leukemia): > 100 µM
- TGI (COLO 205 colon): 80.6 µM
- TGI (DLD-1 colon): > 100 µM
- TGI (DMS 114 small cell lung): 88.8 µM
- TGI (DMS 273 small cell lung): > 100 µM
- TGI (EKVX NSCLC): > 100 µM
- TGI (HCC-2998 colon): > 100 µM
- TGI (HCT-15 colon): > 100 µM
- TGI (HL-60(TB) leukemia): > 100 µM
- TGI (HOP-18 NSCLC): > 100 µM
- TGI (HOP-62 NSCLC): > 100 µM
- TGI (HOP-92 NSCLC): 76.3 µM
- TGI (HT29 colon): > 100 µM
- TGI (IGROV1 ovarian): > 100 µM
- TGI (K-562 leukemia): > 100 µM
- TGI (KM12 colon): > 100 µM
- TGI (LOX IMVI melanoma): > 100 µM
- TGI (LXFL 529 NSCLC): > 100 µM
- TGI (M14 melanoma): 96.2 µM
- TGI (M19-MEL melanoma): > 100 µM
- TGI (MALME-3M melanoma): 98.6 µM
- TGI (MOLT-4 leukemia): 79.6 µM
- TGI (NCI-H226 lung): > 100 µM
- TGI (NCI-H23 lung): > 100 µM
- TGI (NCI-H522 lung): 38.4 µM
- TGI (OVCAR-3 ovarian): 62.2 µM
- TGI (OVCAR-4 ovarian): > 100 µM
- TGI (OVCAR-5 ovarian): > 100 µM
- TGI (OVCAR-8 ovarian): > 100 µM
- TGI (RPMI-8226 leukemia): 86.7 µM
- TGI (RXF 393 renal): > 100 µM
- TGI (RXF-631 renal): > 100 µM
- TGI (SF-268 CNS): > 100 µM
- TGI (SF-295 CNS): > 100 µM
- TGI (SF-539 CNS): > 100 µM
- TGI (SK-MEL-2 melanoma): > 100 µM
- TGI (SK-MEL-28 melanoma): > 100 µM
- TGI (SK-MEL-5 melanoma): 61.9 µM
- TGI (SK-OV-3 ovarian): > 100 µM
- TGI (SN12C renal): > 100 µM
- TGI (SNB-19 CNS): > 100 µM
- TGI (SNB-75 CNS): > 100 µM
- TGI (SNB-78 CNS): > 100 µM
- TGI (SW-620 colon): > 100 µM
- TGI (TK-10 renal): > 100 µM
- TGI (U251 CNS): 68.3 µM
- TGI (UACC-257 melanoma): > 100 µM
- TGI (UACC-62 melanoma): 92.1 µM
- TGI (UO-31 renal): 81.4 µM
- TGI (XF 498 CNS): 66.6 µM

Structure (SMILES): O=c1oc2ccccc2n1P(=O)(n1c(=O)oc2ccccc21)n1c(=O)oc2ccccc21
- TGI (A498 renal): > 100 µM
- TGI (A549 NSCLC): > 100 µM
- TGI (ACHN renal): > 100 µM
- TGI (CAKI-1 renal): > 100 µM
- TGI (CCRF-CEM leukemia): > 100 µM
- TGI (COLO 205 colon): > 100 µM
- TGI (DLD-1 colon): > 100 µM
- TGI (DMS 114 small cell lung): > 100 µM
- TGI (DMS 273 small cell lung): > 100 µM
- TGI (EKVX NSCLC): > 100 µM
- TGI (HCC-2998 colon): > 100 µM
- TGI (HCT-116 colon): > 100 µM
- TGI (HL-60(TB) leukemia): > 100 µM
- TGI (HOP-62 NSCLC): > 100 µM
- TGI (HOP-92 NSCLC): > 100 µM
- TGI (HT29 colon): > 100 µM
- TGI (IGROV1 ovarian): > 100 µM
- TGI (K-562 leukemia): > 100 µM
- TGI (KM12 colon): > 100 µM
- TGI (KM20L2 colon): > 100 µM
- TGI (LOX IMVI melanoma): > 100 µM
- TGI (LXFL 529 NSCLC): > 100 µM
- TGI (M14 melanoma): > 100 µM
- TGI (M19-MEL melanoma): > 100 µM
- TGI (MALME-3M melanoma): > 100 µM
- TGI (MOLT-4 leukemia): > 100 µM
- TGI (NCI-H226 lung): > 100 µM
- TGI (NCI-H23 lung): > 100 µM
- TGI (NCI-H460 lung): > 100 µM
- TGI (NCI-H522 lung): > 100 µM
- TGI (OVCAR-3 ovarian): > 100 µM
- TGI (OVCAR-4 ovarian): > 100 µM
- TGI (OVCAR-5 ovarian): > 100 µM
- TGI (RXF 393 renal): > 100 µM
- TGI (RXF-631 renal): > 100 µM
- TGI (SF-268 CNS): > 100 µM
- TGI (SF-295 CNS): > 100 µM
- TGI (SF-539 CNS): > 100 µM
- TGI (SK-MEL-2 melanoma): > 100 µM
- TGI (SK-MEL-28 melanoma): > 100 µM
- TGI (SK-OV-3 ovarian): > 100 µM
- TGI (SN12C renal): > 100 µM
- TGI (SNB-19 CNS): > 100 µM
- TGI (SNB-75 CNS): > 100 µM
- TGI (SNB-78 CNS): > 100 µM
- TGI (SR leukemia): > 100 µM
- TGI (SW-620 colon): > 100 µM
- TGI (TK-10 renal): > 100 µM
- TGI (U251 CNS): > 100 µM
- TGI (UACC-257 melanoma): > 100 µM
- TGI (UACC-62 melanoma): > 100 µM
- TGI (UO-31 renal): > 100 µM
- TGI (XF 498 CNS): > 100 µM

Structure (SMILES): Cc1ccc2[nH]c3c(C)c4c(c(C)c3c2c1)CN(C)C=C4
- TGI (786-0 renal): 10.5 µM
- TGI (A549 NSCLC): 2.99 µM
- TGI (ACHN renal): 20.5 µM
- GI50 (CAKI-1 renal): 1.21 µM
- TGI (CAKI-1 renal): 5.89 µM
- GI50 (CCRF-CEM leukemia): 2.33 µM
- TGI (CCRF-CEM leukemia): 22 µM
- TGI (COLO 205 colon): 1.4 µM
- TGI (DLD-1 colon): 13.1 µM
- GI50 (DMS 114 small cell lung): 0.437 µM
- TGI (DMS 114 small cell lung): 2.1 µM
- TGI (DMS 273 small cell lung): 3.09 µM
- TGI (EKVX NSCLC): 10 µM
- TGI (HCC-2998 colon): 3.52 µM
- TGI (HCT-116 colon): 10.6 µM
- TGI (HCT-15 colon): 28.2 µM
- TGI (HL-60(TB) leukemia): 23.5 µM
- TGI (HOP-18 NSCLC): 26.9 µM
- TGI (HOP-62 NSCLC): 2.71 µM
- TGI (HOP-92 NSCLC): 4.74 µM
- TGI (HT29 colon): 11.2 µM
- TGI (IGROV1 ovarian): 7.38 µM
- TGI (K-562 leukemia): > 38.9 µM
- TGI (KM12 colon): 2.4 µM
- TGI (KM20L2 colon): 11.8 µM
- TGI (LOX IMVI melanoma): 17 µM
- TGI (LXFL 529 NSCLC): 2.35 µM
- TGI (M14 melanoma): 13.6 µM
- GI50 (MALME-3M melanoma): 1.72 µM
- TGI (MALME-3M melanoma): 4.58 µM
- TGI (MOLT-4 leukemia): > 40.6 µM
- TGI (NCI-H226 lung): 2.13 µM
- TGI (NCI-H23 lung): 2.3 µM
- TGI (NCI-H460 lung): 12 µM
- TGI (NCI-H522 lung): 1.38 µM
- TGI (OVCAR-3 ovarian): 14.8 µM
- TGI (OVCAR-4 ovarian): 6.76 µM
- TGI (OVCAR-5 ovarian): 9.41 µM
- TGI (OVCAR-8 ovarian): 9.01 µM
- TGI (RPMI-8226 leukemia): 35.5 µM
- TGI (RXF 393 renal): 12.9 µM
- TGI (RXF-631 renal): 8.75 µM
- TGI (SF-268 CNS): 0.975 µM
- TGI (SF-295 CNS): 3.73 µM
- TGI (SF-539 CNS): 1.62 µM
- TGI (SK-MEL-2 melanoma): 3.2 µM
- TGI (SK-MEL-28 melanoma): 4.03 µM
- TGI (SK-MEL-5 melanoma): 2.94 µM
- TGI (SK-OV-3 ovarian): 7.04 µM
- TGI (SN12C renal): 0.682 µM
- TGI (SNB-19 CNS): 1.99 µM
- TGI (SNB-75 CNS): 2.27 µM
- TGI (SNB-78 CNS): 3.41 µM
- TGI (SR leukemia): > 36.8 µM
- TGI (SW-620 colon): 3 µM
- TGI (TK-10 renal): 21.9 µM
- TGI (U251 CNS): 1.09 µM
- TGI (UACC-257 melanoma): 8 µM
- TGI (UACC-62 melanoma): 3.15 µM
- TGI (UO-31 renal): 19.5 µM
- TGI (XF 498 CNS): 6.06 µM
